Like-named read-outs stand apart in the source and are kept apart here.
Columns and labels:
Viking EC50, 50% NHS = type: cell-based; conditions: method not described, read-out: Viking EC50_50% NHS
[1] = test system: infected PBMCs (VSV-G pseudotyped HIV virus); assay: cells; type: cell-based, human; conditions: read-out: SMACK EC50_50% NHS

Row | SMILES | EC50 (Viking EC50, 50% NHS) [nM] | EC50 ([1]; Homo sapiens, PBMC) [nM] | EC50 [1] [nM]
1 | Cc1c(C#N)cc(C(F)F)cc1Oc1c(C(F)(F)C(F)F)ncn(Cc2cc(F)c[nH]c2=O)c1=O [Example 14, 5-(Difluoromethyl)-3-((1-((5-Fluoro-2-Oxo-1,2-Dihydropyridin-3-Yl)Methyl)-6-Oxo-4-(1,1,2,2-Tetrafluoroethyl)-1,6-Dihydropyrimidin-5-Yl)Oxy)-2-Methylbenzonitrile] | 29.5 | 101 | –
2 | Cc1c(C#N)cc(C(F)F)cc1Oc1c(C(F)(F)C(F)(F)F)ncn(Cc2ccc[nH]c2=O)c1=O [Example 23, 5-(Difluoromethyl)-2-Methyl-3-((6-Oxo-1-((2-Oxo-1,2-Dihydropyridin-3-Yl)Methyl)-4-(Perfluoroethyl)-1,6-Dihydropyrimidin-5-Yl)Oxy)Benzonitrile] | 53 | 234 | –
3 | Cc1ccc(Cn2cnc(C(F)(F)C(F)F)c(Oc3cc(C(F)F)cc(C#N)c3C)c2=O)c(=O)[nH]1 [Example 22, 5-(difluoromethyl)-2-methyl-3-((1-((6-methyl-2-oxo-1,2-dihydropyridin-3-yl)methyl)-6-oxo-4-(1,1,2,2-tetrafluoroethyl)-1,6-dihydropyrimidin-5-yl)oxy)benzonitrile] | 48.9 | 131 | –
4 | CC(F)c1ncn(Cc2ccc(CO)[nH]c2=O)c(=O)c1Oc1cc(Cl)cc(C#N)c1F (single isomer, unassigned) [Example 33, 5-Chloro-2-Fluoro-3-((4-(1-Fluoroethyl)-1-((6-(Hydroxymethyl)-2-Oxo-1,2-Dihydropyridin-3-Yl)Methyl)-6-Oxo-1,6-Dihydropyrimidin-5-Yl)Oxy)Benzonitrile] | 23.1 | – | 389
5 | Cc1cc(C#N)c(C)c(Oc2c(C(F)(F)C(F)F)ncn(Cc3c(C)cc(C)[nH]c3=O)c2=O)c1 [Example 24, 3-((1-((4,6-Dimethyl-2-Oxo-1,2-Dihydropyridin-3-Yl)Methyl)-6-Oxo-4-(1,1,2,2-Tetrafluoroethyl)-1,6-Dihydropyrimidin-5-Yl)Oxy)-2,5-Dimethylbenzonitrile] | 168 | 346 | –
6 | COCc1ccc(Cn2cnc(C(F)(F)C(F)F)c(Oc3cc(Cl)cc(C#N)c3F)c2=O)c(=O)[nH]1 [Example 1, 5-Chloro-2-Fluoro-3-((1-((6-(Methoxymethyl)-2-Oxo-1,2-Dihydropyridin-3-Yl)Methyl)-6-Oxo-4-(1,1,2,2-Tetrafluoroethyl)-1,6-Dihydropyrimidin-5-Yl)Oxy)Benzonitrile] | 29.6 | 258 | –
7 | Cc1c(C#N)cc(C(F)F)cc1Oc1c(C(F)(F)C(F)F)ncn(Cc2ccc(C(C)(C)O)[nH]c2=O)c1=O [Example 29, 5-(Difluoromethyl)-3-((1-((6-(2-Hydroxypropan-2-Yl)-2-Oxo-1,2-Dihydropyridin-3-Yl)Methyl)-6-Oxo-4-(1,1,2,2-Tetrafluoroethyl)-1,6-Dihydropyrimidin-5-Yl)Oxy)-2-Methylbenzonitrile] | 29.8 | 187 | –
8 | Cc1cc(C#N)cc(Oc2c(C(C)(F)F)ncn(Cc3c(C)cc(C)[nH]c3=O)c2=O)c1 [Example 15, 3-((4-(1,1-difluoroethyl)-1-((4,6-dimethyl-2-oxo-1,2-dihydropyridin-3-yl)methyl)-6-oxo-1,6-dihydropyrimidin-5-yl)oxy)-5-methylbenzonitrile] | 21.9 | 384 | –
9 | Cc1ccc(Cn2cnc(C(F)(F)C(F)F)c(Oc3cc(Cl)cc(C#N)c3F)c2=O)c(=O)[nH]1 [Example 39, 5-Chloro-2-Fluoro-3-((1-((6-Methyl-2-Oxo-1,2-Dihydropyridin-3-Yl)Methyl)-6-Oxo-4-(1,1,2,2-Tetrafluoroethyl)-1,6-Dihydropyrimidin-5-Yl)Oxy)Benzonitrile] | 33.5 | 162 | –
10 | COCc1ccc(Cn2cnc(C(F)(F)C(F)F)c(Oc3cc(C(F)F)cc(C#N)c3C)c2=O)c(=O)[nH]1 [Example 26, 5-(difluoromethyl)-3-((1-((6-(methoxymethyl)-2-oxo-1,2-dihydropyridin-3-yl)methyl)-6-oxo-4-(1,1,2,2-tetrafluoroethyl)-1,6-dihydropyrimidin-5-yl)oxy)-2-methylbenzonitrile] | 29.3 | 90.1 | –
11 | N#Cc1cc(Cl)cc(Oc2c(C(F)(F)C(F)F)ncn(Cc3ccc(CO)[nH]c3=O)c2=O)c1F [Example 31, 5-Chloro-2-Fluoro-3-((1-((6-(Hydroxymethyl)-2-Oxo-1,2-Dihydropyridin-3-Yl)Methyl)-6-Oxo-4-(1,1,2,2-Tetrafluoroethyl)-1,6-Dihydropyrimidin-5-Yl)Oxy)Benzonitrile] | 20.7 | 86.8 | –
12 | Cc1cc(C)c(Cn2cnc(C(F)(F)C(F)F)c(Oc3cc(C(F)F)cc(C#N)c3C)c2=O)c(=O)[nH]1 [Example 5, 5-(difluoromethyl)-3-((1-((4,6-dimethyl-2-oxo-1,2-dihydropyridin-3-yl)methyl)-6-oxo-4-(1,1,2,2-tetrafluoroethyl)-1,6-dihydropyrimidin-5-yl)oxy)-2-methylbenzonitrile] | 47.1 | 161 | –
13 | Cc1c(C#N)cc(Cl)cc1Oc1c(C(F)(F)F)ncn(Cc2ccc(-c3cc[nH]n3)[nH]c2=O)c1=O [Example 13, 5-chloro-2-methyl-3-((6-oxo-1-((2-oxo-6-(1H-pyrazol-3-yl)-1,2-dihydropyridin-3-yl)methyl)-4-(trifluoromethyl)-1,6-dihydropyrimidin-5-yl)oxy)benzonitrile] | 343 | 296 | –
14 | Cc1cc(C)c(Cn2cnc(C(F)(F)F)c(Oc3cc(C(F)F)cc(C#N)c3C)c2=O)c(=O)[nH]1 [Example 42, 5-(Difluoromethyl)-3-((1-((4,6-Dimethyl-2-Oxo-1,2-Dihydropyridin-3-Yl)Methyl)-6-Oxo-4-(Trifluoromethyl)-1,6-Dihydropyrimidin-5-Yl)Oxy)-2-Methylbenzonitrile] | 43.1 | 222 | –
15 | Cc1cc(C)c(Cn2cnc(C(F)(F)C(F)F)c(Oc3cc(Br)cc(C#N)c3)c2=O)c(=O)[nH]1 [Example 7, 3-bromo-5-((1-((4,6-dimethyl-2-oxo-1,2-dihydropyridin-3-yl)methyl)-6-oxo-4-(1,1,2,2-tetrafluoroethyl)-1,6-dihydropyrimidin-5-yl)oxy)benzonitrile] | 29.1 | 433 | –
16 | Cc1cc(C)c(Cn2cnc(C(F)(F)CF)c(Oc3cc(C(F)F)cc(C#N)c3C)c2=O)c(=O)[nH]1 [Example 41, 5-(difluoromethyl)-3-((1-((4,6-dimethyl-2-oxo-1,2-dihydropyridin-3-yl)methyl)-6-oxo-4-(1,1,2-trifluoroethyl)-1,6-dihydropyrimidin-5-yl)oxy)-2-methylbenzonitrile] | 59.8 | 283 | –
17 | Cc1cc(C)c(Cn2cnc(C(C)(F)F)c(Oc3cc(Cl)cc(C#N)c3F)c2=O)c(=O)[nH]1 [Example 2, 5-chloro-3-((4-(1,1-difluoroethyl)-1-((4,6-dimethyl-2-oxo-1,2-dihydropyridin-3-yl)methyl)-6-oxo-1,6-dihydropyrimidin-5-yl)oxy)-2-fluorobenzonitrile] | 37.4 | 294 | –
18 | Cc1cc(C)c(Cn2cnc(C(F)(F)C(F)F)c(Oc3cc(Cl)cc(C#N)c3)c2=O)c(=O)[nH]1 [Example 6, 3-chloro-5-((1-((4,6-dimethyl-2-oxo-1,2-dihydropyridin-3-yl)methyl)-6-oxo-4-(1,1,2,2-tetrafluoroethyl)-1,6-dihydropyrimidin-5-yl)oxy)benzonitrile] | 37.5 | 263 | –
19 | Cc1cc(C)c(Cn2cnc(C(F)(F)C(F)F)c(Oc3cc(C#N)cc(C(F)F)c3)c2=O)c(=O)[nH]1 [Example 40, 3-(difluoromethyl)-5-((1-((4,6-dimethyl-2-oxo-1,2-dihydropyridin-3-yl)methyl)-6-oxo-4-(1,1,2,2-tetrafluoroethyl)-1,6-dihydropyrimidin-5-yl)oxy)benzonitrile] | 39.2 | 283 | –
20 | N#Cc1cc(Cl)cc(Oc2c(C(F)(F)F)ncn(Cc3cc(F)c[nH]c3=O)c2=O)c1Cl [Example 36, 2,5-dichloro-3-((1-((5-fluoro-2-oxo-1,2-dihydropyridin-3-yl)methyl)-6-oxo-4-(trifluoromethyl)-1,6-dihydropyrimidin-5-yl)oxy)benzonitrile] | 50 | 369 | –
21 | Cc1ccc(Cn2cnc(C(F)(F)C(F)(F)F)c(Oc3cc(Cl)cc(C#N)c3F)c2=O)c(=O)[nH]1 [Example 21, 5-Chloro-2-Fluoro-3-((1-((6-Methyl-2-Oxo-1,2-Dihydropyridin-3-Yl)Methyl)-6-Oxo-4-(Perfluoroethyl)-1,6-Dihydropyrimidin-5-Yl)Oxy)Benzonitrile] | 76.8 | 152 | –

From patent US20250214962A1, “PYRIDINONE DERIVATIVES AS SELECTIVE CYTOTOXIC AGENTS AGAINST HIV INFECTED CELLS” (Merck Sharp & Dohme LLC, priority 2019, published 2025)
